These results are taken from BindingDB's records for doi:10.1021/jm9004225 (National Institute On Drug Abuse and The National Institute …, 2009).

Structures are written as SMILES.

This test can be described thus: Displacement of [3H]U69593 from human recombinant kappa opioid receptor expressed in CHO cells. Background: In a radioligand displacement assay an active substance lowers the binding of a labelled ligand.

As a reminder, the Ki is the dissociation constant of the complex between target and ligand, obtained from inhibition or displacement. With `CC[C@]12CCN(C)C[C@H]1Oc1ccc(O)cc12` [4aR,9aS-(+)-cis-4a-Ethyl-2-methyl-1,2,3,4,4a,9a-hexahydrobenzofuro[2,3-c]pyridin-6-ol], the Ki is greater than 10 µM.
